Measurements reported in patent publication US3939150A, “Penicillin derivatives” (priority 1973, dated 1976).
Where a name gives a salt, the structure may show the parent alone.

What was measured:
[1] = system: Escherichia coli 31 strain; assay: MIC distribution, clinical isolated strains; assay type: cell-based; details: of 31 strains
Source text: (Escherichia coli 31 strain)
(§1) It is clear from the results shown in the above tables, as regards the antibacterial activities against clinical isolated strains, the compounds of this invention show quite high activity against not only Pseudomonas aeruginosa but also against Klebsiella as compared with carbenicillin

Klebsiella 78 strain = assay: MIC distribution, clinical isolated strains; assay type: cell-based; details: of 78 strains; for number of strains with MIC 100: MIC 100 μ/ml
Source text: as §1

[2] = system: Pseudomonas aeruginosa 35 strain; assay: MIC distribution, clinical isolated strains; assay type: cell-based; details: of 35 strains
Source text: (Pseudomonas aeruginosa 35 strain)
as §1

[3] = Water solubility and pH of aqueous solution; assay type: physicochemical; details: 250 mg/ml in water
Description: As the compounds of this invention are easily soluble in water, the compound can be clinically used as an agent for parenteral administration such as an agent for intravenous injection and an agent for intramuscular injection. For example, when sodium D(-)-6-[α-(p-hydroxyphenyl)-α-(4-oxo-4H-thiopyran-3-yl-carboxanido acetamido]penicillanate is dissolved in water, the pH of the solution is about 5.8 (250 mg/ml).

[4] = system: Proteus mirabilis 1287 strain; assay: Protective effect against experimentally infected mice, one subcutaneous administration; assay type: in vivo, mice infected with Proteus mirabilis; details: s.c. once, 2 hours after challenge
Description: d. Mice (one group included five mice) were infected with Proteus mirabilis 1287 strain via the intraperitoneal route and a solution prepared by dissolving the test antiobiotics in sterilized distilled water was once administered by subcutaneous injection 2 hours after of challenge of the test organism.

[5] = system: Pseudomonas aeruginosa NC-5 strain; assay: as above; assay type: in vivo, mice infected with Pseudomonas aeruginosa; details: s.c. once
Source text: a. Mice (one group included five mice) were infected with pseudomonas aeruginosa NC-5 strain the intraperitoneal route and a solution prepared by dissolving the test antibiotics in sterilized distilled water was once administered by subcutaneous injection immediately after challenge of the test organism and then the numbers of living mice were inspected. […] (The figures shown in Tables VII-IX have the same meaning).

[6] = system: Pseudomonas aeruginosa NC-5 strain; assay: Protective effect against experimentally infected mice, three subcutaneous administrations; assay type: in vivo, mice infected with Pseudomonas aeruginosa; details: s.c.
Description: b. Mice (one group included five mice) were infected with pseudomonas aeruginosa NC-5 strain via intraperitoneal route and a solution prepared by dissolving the test substance in sterilized distilled water was administered by subcutaneous injection three times, i. e., immediately after challenge of the test organism, after 2 hours, and after 4 hours.

male dd-N mice = assay: Acute toxicity (minimum lethal dose); assay type: in vivo
Source text: a. The minimum lethal doses (MLD) when the compound of this invention was intravenously and subcutaneously administered to male dd-N mice are shown in Table X.

male Sprague-Dawley rats [7] = assay: Nephrotoxicity after 1 week subcutaneous injection; assay type: in vivo; details: 1000 mg/Kg/day sc, 7 days
Description: b. Test antibiotics were administered to male Sprague-Dawley rats by subcutaneous injection daily for 7 days. After seven days, animals were sacrificed and estimated for organ weight and serum urea-nitrogen including visual studies of kidney.

[8] = system: Pseudomonas aeruginosa NC-5 strain; assay: Protective effect against experimentally infected mice, two oral administrations; assay type: in vivo, mice infected with Pseudomonas aeruginosa
Description: c. Mice (one group included five mice) were infected with Pseudomonas aeruginosa NC-5 strain via the intraperitoneal route and the test substance was orally administered twice, i. e., immediately after challenge of the test organism and after 2 hours.

male Sprague-Dawley rats [9] = assay: Acute nephrotoxicity in combination with glycerol and furocemide in rats; assay type: in vivo; details: 1000 mg/Kg s.c.; with glycerol 4 ml/Kg of 50% and furocemide 50 mg/Kg s.c.; 48 hours
Description: c. Glycerol (50%, 4 ml/kg), furocemide (50 mg/kg) and test actibiotics were injected subcutaneously in male Sprague-Dawley rats. […] Animals of each group were sacrificed 48 hours later to estimate serum urea-nitrogen values.

Stability of di-hydrate = assay type: physicochemical
Source text: In addition, if the water-containing organic solvent solution keeps up its homogeneity, an organic solvent immiscible with water such as methylene chloride, chloroform, etc., may be added to the solution.

Compound: CC1(C)S[C@@H]2[C@H](NC(=O)[C@H](NC(=O)c3csccc3=O)c3ccc(O)cc3)C(=O)N2[C@H]1C(=O)O [Example 3, α-(4-oxo-4H-thiopyran-3-carboxamido)-p-hydroxybenzylpenicillin sodium salt]
- number of strains with MIC 1.56 ([1]; MIC 1.56 μ/ml): 2
- number of strains with MIC […] ([1]; MIC 3.13 μ/ml): 1
- number of strains with MIC […] ([1]; MIC 6.25 μ/ml): 8
- number of strains with MIC 12.5 ([1]; MIC 12.5 μ/ml): 9
- number of strains with MIC 25 ([1]; MIC 25 μ/ml): 2
- number of strains with MIC 50 ([1]; MIC 50 μ/ml): 0
- number of strains with MIC 100 ([1]; MIC 100 μ/ml): 0
- number of strains with MIC >100 ([1]; MIC >100 μ/ml): 9
- number of strains with MIC 1.56 (Klebsiella 78 strain; MIC 1.56 μ/ml): 0
- number of strains with MIC […] (Klebsiella 78 strain; MIC 3.13 μ/ml): 0
- number of strains with MIC […] (Klebsiella 78 strain; MIC 6.25 μ/ml): 2
- number of strains with MIC 12.5 (Klebsiella 78 strain; MIC 12.5 μ/ml): 17
- number of strains with MIC 25 (Klebsiella 78 strain; MIC 25 μ/ml): 30
- number of strains with MIC 50 (Klebsiella 78 strain; MIC 50 μ/ml): 1
- number of strains with MIC 100 (Klebsiella 78 strain; first column headed 100): 1
- number of strains with MIC 100 (Klebsiella 78 strain; second column headed 100): 7
- number of strains with MIC 400 (Klebsiella 78 strain; MIC 400 μ/ml): 4
- number of strains with MIC >400 (Klebsiella 78 strain; MIC >400 μ/ml): 16
- number of strains with MIC 1.56 ([2]; MIC 1.56 μ/ml): 2
- number of strains with MIC […] ([2]; MIC 3.13 μ/ml): 5
- number of strains with MIC […] ([2]; MIC 6.25 μ/ml): 6
- number of strains with MIC 12.5 ([2]; MIC 12.5 μ/ml): 6
- number of strains with MIC 25 ([2]; MIC 25 μ/ml): 2
- number of strains with MIC 50 ([2]; MIC 50 μ/ml): 5
- number of strains with MIC 100 ([2]; MIC 100 μ/ml): 2
- number of strains with MIC >100 ([2]; MIC >100 μ/ml): 7
- pH of the solution [3]: about 5.8
- number of living mice / number of mice inspected ([4]; 1.25 mg): 1/5
- number of living mice / number of mice inspected ([4]; 2.5 mg): 2/5
- number of living mice / number of mice inspected ([4]; 5 mg): 4/5
- number of living mice / number of mice inspected ([4]; 10 mg): 3/5
- number of living mice / number of mice inspected ([5]; 15 mg): 2/5
- number of living mice / number of mice inspected ([5]; 30 mg): 3/5
- number of living mice / number of mice inspected ([5]; 60 mg): 5/5
- number of living mice / number of mice inspected ([6]; 2.5 × 3 mg): 5/5
- number of living mice / number of mice inspected ([6]; 5 × 3 mg): 5/5
- number of living mice / number of mice inspected ([6]; 10 × 3 mg): 5/5
- MLD (male dd-N mice; i.v.): 3500 mg/kg
- MLD (male dd-N mice; s.c.): 7000 mg/kg
- Kidney weights (male Sprague-Dawley rats [7]): 2.30 g
- Serum urea-N (male Sprague-Dawley rats [7]): 20.3 mg/dL
- number of living mice / number of mice inspected ([8]; 25 × 2 mg): 2/5
- number of living mice / number of mice inspected ([8]; 50 × 2 mg): 3/5
- number of living mice / number of mice inspected ([8]; 100 × 2 mg): 5/5
- Serum urea nitrogen (male Sprague-Dawley rats [9]): 23.3 ± 2.5 mg/dL

Compound: CC1(C)S[C@@H]2[C@H](NC(=O)[C@H](NC(=O)c3csccc3=O)c3ccc(O)cc3)C(=O)N2[C@H]1C(=O)O [Example 27, D(-)-6-[p-hydroxy-phenyl-α-(4-oxo-4H-thiopyran-3-ylcarboxamido)acetamido]penicillanic acid di-hydrate]
- stability (Stability of di-hydrate): pure and stable
